# “Also recorded” adds a separate entry of the source. Where two headings read alike, the source gives them in different places. Marks after values point to notes of the source that are not given here. Where a SMILES comes first, the peptide text is derived from it. Bridges are numbered along the chain shown (N, C = ends). Triazole bridges read from a SMILES are 1,4-linked. [ ]: non-standard residue; d: D form. The star is where a group is joined. Benzoyl(4-guanidino) = N=C(N)Nc1ccc(C(=O)*)cc1; Aha = [N-]=[N+]=NCC[C@H](N)C(=O)O; β3hV = CC(C)[C@H](N)CC(=O)O; Nle = CCCC[C@H](N)C(=O)O; Pra = C#CC[C@H](N)C(=O)O
# Legend:
# [1] = type: in vitro ADME; conditions: for half-life: plasma
# Procedure: Plasmas from 3 species (including commercially available human healthy donors) were adjusted to pH 7.4 if necessary. Incubations were performed at a concentration of 1 µM of the compound at 37 °C (in the presence of a final concentration of DMSO of 2.5% v/v. The incubations were stopped at 0, 15, 30, 60 and 120 min by methanol. Each time point was run in sextuplets. The sampling plates were then centrifuged (2500 rpm, 45 min, 4 °C) and the supernatants pooled. Samples were analyzed for parent compound by LC-MS/MS. The percentage of parent compound remaining at each time point relative to the 0 min sample is then calculated from LC-MS/MS peak area ratios. Then, the stability in plasma was evaluated by incubating human, rat or mouse plasma with the compound(s) as follows: the product (0.1 µM in TRIS buffer pH 7.4 0.1% BSA) was incubated with the plasma at 37 °C. The disappearance of the product was measured at 15, 45, 120, 240 and 300 min by mass spectrometry. Incubations were carried out in a robot Star (Hamilton France, Villebon-sur-Yvette, France). At each sampling time, 50 µL of the reaction medium was removed and diluted with 100 µL of acetonitrile. After centrifugation (20 min at + 4 °C, 4000 rpm), 75 µL of the supernatants was transferred into a 384 well injection plate. Ten microliters were injected onto UPLC coupled with a XEVO TQS mass spectrometer system (Waters, Milford, MA, USA). The unchanged product is quantified using a reference sample (0.1 µM) prepared during the incubation process. A second reference sample at 0.01 µM is prepared in the same conditions to verify the linearity of the detection method. The peak height (or area) is measured to calculate the half-life of the compound.
# [2] = test system: high-fat diet-induced obese C57BL/6 mice; assay: Diet-induced obesity model: blood biochemistry; type: in vivo, mouse; conditions: for Insulin / Total Cholesterol / Triglyceride: High-Fat Diet mice
# Procedure: Male C57BL/6 mice at 4 weeks of age were provided by BioLasco Taiwan (under Charles River Laboratories Licensee). All animals were maintained in an environment with well-controlled temperature (20–24 °C) and humidity (30–70%) with 12 h light/dark cycles. Free access to standard lab diet (MFG (Oriental Yeast Co., Ltd., Japan)) and autoclaved tap water was granted. All aspects of this work including housing, experimentation, and animal disposal were performed in general accordance with the “Guide for the Care and Use of Laboratory Animals: Eighth Edition” (National Academies Press, Washington, D.C., 2011) in our laboratory animal facility accredited by the […]. In addition, the protocol for animal care and use was reviewed and approved by the Institutional Animal Care and Use Committee (IACUC) at Pharmacology Discovery Services Taiwan, Ltd.
# ALT (Alanine aminotransferase) and AST (Aspartate aminotransferase) assay kit (Denka Seiken, Japan), Cholesterol assay kit (Denka, Japan), Creatinine assay kit (Denka Seiken, Japan), Mouse insulin ELISA kit (Crystal chem, Elk Grove Village, IL, USA), Na^+/K^+ assay kit (Toshiba, Japan), Triglyceride assay kit (Sentinel Diagnostics, Milano, Italy) and Water for injection (Tai-Yu, Taiwan).
# The protocol was performed for all groups and all animals. Male C57BL/6 mice were fed a high-fat diet (HFD) (60% of calories) or a standard chow diet (STD) from 4 weeks of age. Thirty (30) mice were fed the HFD and 10 mice were fed the STD (for 8 weeks before treatment) for a total of 20 weeks. The mice assigned to the STD diet were maintained on this diet throughout the study as a reference group of lean control mice. From Week 9, HFD-fed mice were grouped by body weight before dosing. Body weight was recorded three times weekly from Week 9. Food/water intake was recorded twice weekly from Week 9. Blood chemistry analyzes were performed in Weeks 8 (before dosing, Day 56), 16 (Day 113) and 20 (Day 141), including serum insulin, total cholesterol (T-CHO), triglyceride (TG), alanine aminotransferase (ALT), aspartate aminotransferase (AST), uric acid (UA), creatinine, potassium (K^+) and sodium (Na^+). At the termination in Week 20 (Day 141), the adipose tissue weight, including epididymal, mesenteric, inguinal, retroperitoneal, and brown fat, was measured after the animals were sacrificed. Two-way ANOVA followed by Bonferroni’s tests were applied to ascertain the difference between vehicle control and treated animals. Significance was set at p < 0.05 level. The following parameters were measured: (1) body weight three times weekly; (2) food/water intake twice weekly; (3) blood chemistry in Weeks 8 (before dosing), 16 and 20 including glucose, insulin, serum lipids (triglycerides (TG), total cholesterol (TC), AST, alanine aminotransferase (ALT), uric acid, creatinine, potassium and sodium through 16-h fasting animals; and finally, (4) total body fat (including visceral and subcutaneous fat) in Week 20.
# [3] = 5 and 10 mg/kg i.p. once daily for 12 weeks, day 113 and day 141
# [4] = 5 or 10 mg/kg i.p. daily, HFD mice
# [5] = 5 or 10 mg/kg i.p. daily, Day 113 and Day 141
# [6] = 5 mg/kg QD x 12 weeks IP, Day 56 (before dosing), mean
# [7] = 5 mg/kg QD x 12 weeks IP, Day 113, mean
# [8] = 5 mg/kg QD x 12 weeks IP, Day 141, mean
# [9] = 10 mg/kg QD x 12 weeks IP, Day 56 (before dosing), mean
# [10] = 10 mg/kg QD x 12 weeks IP, Day 113, mean
# [11] = 10 mg/kg QD x 12 weeks IP, Day 141, mean
smiles,measurement,setting,value
CCCC[C@@H]1NC(=O)[C@@H](NC(=O)c2ccc(NC(=N)N)cc2)CCn2cc(nn2)C[C@@H](C(=O)N[C@@H](Cc2c[nH]c3ccccc23)C(=O)O)NC(=O)[C@@H]2CCCN2C(=O)[C@H](CCCNC(=N)N)NC(=O)C[C@H](C(C)C)NC(=O)[C@H](CCCNC(=N)N)NC(=O)[C@H](CC(C)C)NC1=O [GPS18169] ({Benzoyl(4-guanidino)}-[Aha][Nle]LR[β3hV]RP[Pra]W-OH; triazole 1-8),half-life,[1]; human,≥ 5 h
same,initial dose remaining after incubation in mice plasma,[1]; mouse,about 50%
same,half-life,[1]; mouse,2.92 ± 0.283 h
same,half-life,[1]; rat,≥ 5 h
same,insulin level,"[2]; 10 mg/kg daily, 12 weeks, vs vehicle treated/normal diet",back to the control
same,serum alanine aminotransferase (ALT) level vs vehicle,[2]; [3],not associated with any significant effect
same,serum aspartate aminotransferase (AST) level vs vehicle,[2]; [3],not associated with any significant effect
same,total cholesterol level,[2]; [4],"remained high, despite a modest reduction; also recorded: improvement"
same,triglycerides level,[2]; [4],"remained high, despite a modest reduction; also recorded: improvement"
same,insulin level,"[2]; 5 or 10 mg/kg i.p. daily, after 12 weeks of treatment, HFD mice",normalization; also recorded: significant reduction; also recorded: improvement; also recorded: return to almost normal
same,serum creatinine level vs vehicle,[2]; [5],did not lead to any significant effect
same,serum potassium (K+) level vs vehicle,[2]; [5],did not lead to any significant effect
same,serum sodium (Na+) level vs vehicle,[2]; [5],did not lead to any significant effect
same,serum uric acid (UA) level vs vehicle,"[2]; 5 or 10 mg/kg i.p. daily, Week 16 (Day 113) and Week 20 (Day 141)",did not lead to any significant effect
same,Insulin,[2]; [6],909.5 pg/mL
same,Total Cholesterol,[2]; [6],158.3 mg/dL
same,Triglyceride,[2]; [6],121.8 mg/dL
same,Insulin,[2]; [7],1983.8 pg/mL
same,Total Cholesterol,[2]; [7],143.1 mg/dL
same,Triglyceride,[2]; [7],115.3 mg/dL
same,Total Cholesterol,[2]; [8],135.6 mg/dL
same,Triglyceride,[2]; [8],108.9 mg/dL
same,Insulin,[2]; [9],1068.0 pg/mL
same,Total Cholesterol,[2]; [9],155.6 mg/dL
same,Triglyceride,[2]; [9],122.9 mg/dL
same,Insulin,[2]; [10],1549.7 pg/mL
same,Total Cholesterol,[2]; [10],135.7 mg/dL
same,Triglyceride,[2]; [10],108.3 mg/dL
same,Insulin,[2]; [11],957.0 * pg/mL
same,Total Cholesterol,[2]; [11],132.1 mg/dL
same,Triglyceride,[2]; [11],102.1 mg/dL

# From paper PMC7957705 (Molecules, 2021)
